The values that follow come from patent US8557796B2, “Substituted 1-oxa-2,8-diaza-spiro [4,5] dec-2-ene derivatives and related treatment methods” (Gruenenthal GmbH, priority 2001, dated 2013).

As usually defined, the inhibition is the percentage by which the read-out fell short of the control.

Assay [1] has as its target T1, α2A-receptor (Homo sapiens, UniProt P08913).
T1 construct: purchased
T1 sequence (P08913 1-465): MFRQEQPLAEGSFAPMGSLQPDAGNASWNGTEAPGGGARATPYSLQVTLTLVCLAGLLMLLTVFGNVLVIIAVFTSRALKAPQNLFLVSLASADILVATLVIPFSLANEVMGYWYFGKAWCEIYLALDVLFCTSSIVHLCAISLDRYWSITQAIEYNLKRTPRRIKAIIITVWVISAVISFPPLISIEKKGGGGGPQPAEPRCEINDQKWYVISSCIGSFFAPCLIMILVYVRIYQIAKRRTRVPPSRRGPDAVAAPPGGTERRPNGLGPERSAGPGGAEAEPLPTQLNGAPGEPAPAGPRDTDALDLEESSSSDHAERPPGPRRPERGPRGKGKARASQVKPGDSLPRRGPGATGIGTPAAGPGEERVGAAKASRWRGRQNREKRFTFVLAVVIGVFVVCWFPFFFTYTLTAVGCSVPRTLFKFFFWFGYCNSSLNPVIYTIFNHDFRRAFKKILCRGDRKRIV
Briefly: α2A-assay, displacement of a marked ligand. It counts as binding. The note with it: human receptor membranes, read-out: alpha2A human, 1 μM, % inhibition. The protocol:
The bond was measured here by the displacement of a marked ligand. The test was carried out according to J. P. Devlin's instructions, “High throughput screening—the discovery of bioactive substances”, p. 275-453, Marcel Dekker, New York, 1997. Membranes containing […] (human) were obtained commercially.
Compounds according to the invention were tested in this assay: the measured results are recited in Table 5: […]

The target of assay [2] is T2, 5HT-uptake (Rattus norvegicus, UniProt P31652).
T2 construct: synaptosomes from rat brain regions were freshly isolated; from tissue; host or cells: P2 synaptosome fraction from rat brain regions
Description: Serotonin uptake inhibition (5HT uptake) in synaptosomes. The note with it: rat brain synaptosomes. It counts as biochemical.
Description: Tests on Serotonin Uptake (5HT Uptake Inhibition)

Assay [3] concerns the target T3, NA transporter (Rattus norvegicus, UniProt Q9WTR4).
T3 construct: synaptosomes from rat brain regions were freshly isolated; from tissue; host or cells: P2 synaptosome fraction from hypothalamus of male rat brain
Briefly: Noradrenalin uptake inhibition (NA-uptake) in synaptosomes. The note with it: rat hypothalamus synaptosomes. It counts as biochemical. The text has this:
Tests on Noradrenalin Uptake Inhibition (NA-Uptake Inhibition)
In order to be able to carry out these in vitro studies, synaptosomes from rat brain regions were freshly isolated.

T3 sequence (Q9WTR4 1-597): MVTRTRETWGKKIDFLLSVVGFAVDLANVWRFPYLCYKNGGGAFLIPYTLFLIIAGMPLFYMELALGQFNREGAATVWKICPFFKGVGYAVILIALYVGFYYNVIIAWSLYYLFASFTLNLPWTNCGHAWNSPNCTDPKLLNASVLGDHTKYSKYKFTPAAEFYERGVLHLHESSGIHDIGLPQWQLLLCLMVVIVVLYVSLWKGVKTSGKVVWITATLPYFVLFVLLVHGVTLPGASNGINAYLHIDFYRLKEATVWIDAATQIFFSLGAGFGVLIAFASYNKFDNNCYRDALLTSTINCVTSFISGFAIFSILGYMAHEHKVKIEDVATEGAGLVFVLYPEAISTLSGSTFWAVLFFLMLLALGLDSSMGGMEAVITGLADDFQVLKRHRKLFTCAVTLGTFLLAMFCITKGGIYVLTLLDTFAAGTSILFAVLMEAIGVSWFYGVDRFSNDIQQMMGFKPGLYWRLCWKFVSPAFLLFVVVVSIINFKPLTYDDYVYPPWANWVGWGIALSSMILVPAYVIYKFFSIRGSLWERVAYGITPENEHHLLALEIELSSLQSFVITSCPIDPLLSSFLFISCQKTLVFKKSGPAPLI
T2 sequence (P31652 whole entry): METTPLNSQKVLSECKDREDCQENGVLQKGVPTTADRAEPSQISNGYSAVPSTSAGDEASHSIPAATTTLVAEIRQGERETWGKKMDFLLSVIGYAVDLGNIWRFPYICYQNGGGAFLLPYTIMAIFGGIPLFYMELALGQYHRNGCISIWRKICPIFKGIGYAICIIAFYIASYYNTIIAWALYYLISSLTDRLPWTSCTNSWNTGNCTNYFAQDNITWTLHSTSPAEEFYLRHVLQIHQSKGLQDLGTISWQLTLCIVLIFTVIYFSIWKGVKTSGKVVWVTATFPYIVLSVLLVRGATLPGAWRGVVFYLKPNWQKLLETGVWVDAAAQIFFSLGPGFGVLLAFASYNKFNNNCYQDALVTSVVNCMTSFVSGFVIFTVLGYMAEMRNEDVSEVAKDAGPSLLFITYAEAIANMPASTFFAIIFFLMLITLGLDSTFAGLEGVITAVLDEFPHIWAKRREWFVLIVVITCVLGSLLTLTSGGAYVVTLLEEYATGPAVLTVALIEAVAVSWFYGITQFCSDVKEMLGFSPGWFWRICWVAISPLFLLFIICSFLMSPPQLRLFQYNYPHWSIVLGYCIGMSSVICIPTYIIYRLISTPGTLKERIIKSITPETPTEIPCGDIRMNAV

On to `COc1ccccc1C1CCN(C(=O)C2=NOC3(CCN(S(=O)(=O)c4ccc(Cl)s4)CC3)C2)CC1` [Example 151, [8-(5-chloro-thiophene-2-sulphonyl)-1-oxa-2,8-diaza-spiro[4,5]dec-2-en-3-yl]-[4-(2-methoxy-phenyl)-piperidin-1-yl]-methanone], for which, in assay [1], the inhibition at 1 µM came out at 33%.

As to `Cc1ccccc1N1CCN(C(=O)C2=NOC3(CCN(S(=O)(=O)c4cccs4)CC3)C2)CC1` [Example 27, [8-(thiophene-2-sulphonyl)-1-oxa-2,8-diaza-spiro[4,5]dec-2-en-3-yl]-(4-o-tolyl-piperazin-1-yl)-methanone], in assay [1], the inhibition at 1 µM was 37%. For the same compound, the inhibition at 10 µM in assay [2] was found to be 49%; in assay [3], 80%.

As for `CCOC(=O)N1CCC(NC(=O)C2=NOC3(CCN(C(=O)C4CC4c4ccccc4)CC3)C2)CC1` (stereo not shown) [Example 55, 4-{[8-(2-phenyl-cyclopropanecarbonyl)-1-oxa-2,8-diaza-spiro[4,5]dec-2-ene-3-carbonyl]-amino}-piperidine-1-carboxylic acid ethyl ester], the inhibition at 10 µM turned out to be 65% in assay [2] and 50% in assay [3].

As to `Cc1ccc(F)cc1S(=O)(=O)N1CCC2(CC1)CC(C(=O)NCCN(C)C)=NO2` [Example 37, 8-(5-fluoro-2-methyl-benzenesulphonyl)-1-oxa-2,8-diaza-spiro[4,5]dec-2-ene-3-carboxylic acid (2-dimethylamino-ethyl)-amide], the inhibition at 10 µM in assay [2] was determined as 70%; in assay [3], 52%.

As to `O=C(NC1CCCC1)C1=NOC2(CCN(C(=O)c3ccc([N+](=O)[O-])cc3Cl)CC2)C1` [Example 5, 8-(2-chloro-4-nitro-benzoyl)-1-oxa-2,8-diaza-spiro[4,5]dec-2-ene-3-carboxylic acid cyclopentylamide], the inhibition at 10 µM in assay [2] amounted to 59%; in assay [3] it was 53%.

For the compound `COc1cccc(CN2CCC(NC(=O)C3=NOC4(CCN(S(=O)(=O)c5cc(Cl)ccc5Cl)CC4)C3)C2)c1` (stereo not shown) [Example 64], the “5HT-uptake, 10 μM, % inhibition” value in assay [2] is 61%. In addition, the “NA-uptake, 10 μM, % inhibition” value in assay [3] is listed as 61%.

Take `O=C(C1=NOC2(CCN(S(=O)(=O)c3cccs3)CC2)C1)N1CCN(CCCc2ccccc2)CC1` [Example 14, [4-(3-phenyl-propyl)-piperazin-l-yl]-[8-(thiophene-2-sulphonyl)-1-oxa-2,8-diaza-spiro[4,5]dec-2-en-3-yl]-methanone]: in assay [2], the “5HT-uptake, 10 μM, % inhibition” value is 78%. In addition, the “NA-uptake, 10 μM, % inhibition” value in assay [3] was 70%.

Consider `CN(Cc1cccnc1)C(=O)C1=NOC2(CCN(S(=O)(=O)c3cccc(C(F)(F)F)c3)CC2)C1` [Example 101, 8-(3-trifluoromethyl-benzenesulphonyl)-1-oxa-2,8-diaza-spiro[4,5]dec-2-ene-3 carboxylic acid methyl-pyridin-3-ylmethyl-amide], for which the inhibition at 10 µM in assay [2] came out at 46%; in assay [3], 43%.

In the case of `O=C(NCCc1ccc(Cl)c(Cl)c1)C1=NOC2(CCN(S(=O)(=O)c3ccc(OC(F)(F)F)cc3)CC2)C1` [Example 165], the “5HT-uptake, 10 μM, % inhibition” value in assay [2] is 41%. The “NA-uptake, 10 μM, % inhibition” value in assay [3] stood at 55%.

`Cc1cccc(N2CCN(C(=O)C3=NOC4(CCN(S(=O)(=O)c5cccs5)CC4)C3)CC2C)c1` (stereo not drawn) [Example 31, (3-methyl-4-m-tolyl-piperazin-l-yl)-[8-(thiophene-2-sulphonyl)-1-oxa-2,8-diaza-spiro[4,5]dec-2-en-3-yl]-methanone]: in assay [2], the “5HT-uptake, 10 μM, % inhibition” value is listed as 69%. In assay [3], the “NA-uptake, 10 μM, % inhibition” value is recorded as 66%.

`O=C(NCC1COc2ccccc2O1)C1=NOC2(CCN(S(=O)(=O)c3cccs3)CC2)C1` (stereo not shown) [Example 21, 8-(thiophene-2-sulphonyl)-1-oxa-2,8-diaza-spiro[4,5]dec-2-ene-3-carboxylic acid (2,3-dihydro-benzo[1,4]dioxin-2-ylmethyl)-amide]: the inhibition at 1 µM in assay [1] worked out at 31%. The compound also had an inhibition at 10 µM in assay [3] of 61%.

With `Cc1ccc(S(=O)(=O)N2CCC3(CC2)CC(C(=O)N2CCN(c4ccc(C)cc4C)CC2)=NO3)cc1` [Example 33, [4-(2,4-dimethyl-phenyl)-piperazin-l-yl]-[8-(toluene-4-sulphonyl)-1-oxa-2,8-diazaspiro[4,5]dec-2-en-3-yl]methanone], the “5HT-uptake, 10 μM, % inhibition” value in assay [2] is recorded as 57%. The “NA-uptake, 10 μM, % inhibition” value in assay [3] is reported as 42%.

On to `Cc1ccc(S(=O)(=O)N2CCC3(CC2)CC(C(=O)NCCc2ccc(Cl)c(Cl)c2)=NO3)cc1` [Example 9], for which the “5HT-uptake, 10 μM, % inhibition” value in assay [2] was found to be 75%. Further, the “NA-uptake, 10 μM, % inhibition” value in assay [3] amounted to 77%.

As for `Cc1ccc(CNC(=O)C2=NOC3(CCN(C(=O)c4ccc(Br)cc4)CC3)C2)o1` [Example 109, 8-(4-bromo-benzoyl)-1-oxa-2,8-diaza-spiro[4,5]dec-2-ene-3-carboxylic acid (5-methyl-furan-2-ylmethyl)-amide], the figures for the inhibition at 10 µM in assay [2] and in assay [3] were 56% and 40%, respectively.
